US20090280069A1, “PROGUANIL TO TREAT SKIN/MUCOSAL DISEASES” (Tolmar, Inc., priority 2008, published 2009)

How the values were obtained:
Format in all cases: cell-based
[1] = test system: Propionibacterium acnes ATCC 6919; assay: time kill assay, P. acnes
Protocol: A microbiological study used a time kill assay with Propionibacterium acnes ATCC 6919 as an indicator of the antibacterial activity of proguanil. […] A broth only control as well as a solvent 10% DGME control were added to the vials so that the total test volume was 15 ml. One hundred μl of a freshly grown suspension of P. acnes 6919 was then added at time zero so that the initial bacterial suspension was between 10^7 and 10^8 CFU/ml. All test and control suspensions were then incubated under anaerobic conditions at 35° C. Aliquots of the test and control suspensions were removed at 24, 48, 72, and 96 hours and plated onto tryptic soy agar in triplicate using a spiral plater. These plates were incubated anaerobically at 35° C. for 3-5 days. Surviving P. acnes colonies were then counted and the CFU/ml of test and control suspensions calculated and graphed.

[2] = test system: Streptococcus dysgalactiae subsp. equisimilis ATCC 6644; assay: time kill assay, S. dysgalactiae (Group G)
Protocol: (§1) Streptococcus dysgalactiae (Group G) infections can lead to skin diseases such as erysipelas and cellulitis. A time kill assay was used to test the effects of varying concentrations of proguanil on a culture of Streptococcus dysgalactiae subsp. equisimilis ATCC 6644. An inoculum of S. dysgalactiae was prepared and inoculated in vials containing Muller Hinton II broth and proguanil concentrations of 160, 80, 16, 8, and 1.6 μg/ml. A growth control using phosphate buffered saline A (PBSA) plus Mueller Hinton II broth was used in place of the drug because it has no antimicrobial effect. DGME was the solvent used to dissolve the proguanil, accordingly, 10% DGME was used as the solvent control. These inoculated broth solutions were then allowed to incubate for a period of 72 hours. Samples were taken at 0, 4, 24, 48 and 72 hours and spiral plated so the CFU/ml could be calculated. In the experiments, the effects of proguanil on the S. dysgalactiae were observed.

[3] = test system: Candida albicans ATCC 10231; assay: time kill assay, C. albicans
Protocol: A time kill assay was used to test the effects of varying concentrations of proguanil on a culture of Candida albicans ATCC 10231. An inoculum of C. albicans was prepared and inoculated in vials containing Muller Hinton II broth and proguanil concentrations of 1280, 640, 480, 320, 160 μg/ml. A growth control using phosphate buffered saline A (PBSA) plus Mueller Hinton II broth was used in place of the drug because it has no antimicrobial effect. DGME was the solvent used to dissolve the proguanil. Accordingly, 10% DGME was used as the solvent control. These inoculated broth solutions were then allowed to incubate for a period of 72 hours. Samples were taken at 0, 4, 24, 48 and 72 hours and spiral plated so the CFU/ml could be calculated.

[4] = test system: Streptococcus equi subsp. equi ATCC 33398; assay: time kill assay, S. equi (Group C)
Protocol: as §1, with “equi” for “dysgalactiae”, “C)” for “G)”, “equi” for “equisimilis”, “33398.” for “6644.”, “Mueller” for “Muller”

[5] = test system: Staphylococcus aureus ATCC 6538-P; assay: time kill assay, S. aureus
Protocol: Staphylococcus aureus infections can lead to many skin diseases. Impetigo, furuncles, folliculitis, and carbuncles are all diseases caused by an infection of S. aureus. A microbiological study used a time kill assay with Staphylococcus aureus ATCC 6538-P as an indicator of the antibacterial activity of proguanil. […] A broth only control as well as a solvent 10% DGME control were added to the vials so that the total test volume was 15 ml. One hundred μl of a freshly grown suspension of the Staphylococcus aureus was then added at time zero so that the initial bacterial suspension was between 10^3 and 10^4 CFU/ml. All test and control suspensions were then incubated under aerobic conditions at 35° C. […] These plates were incubated aerobically at 35° C. for 1-3 days. Surviving colonies were then counted and the CFU/ml of test and control suspensions calculated and graphed.

[6] = test system: Gardnerella vaginalis ATCC 14018; assay: time kill assay, G. vaginalis
Protocol: A time kill assay was used to test the effects of varying concentrations of proguanil on a culture of Gardnerella vaginalis ATCC 14018. An inoculum of G. vaginalis was prepared and inoculated in vials containing Brain Heart Infusion/Hemoglobin broth containing proguanil concentrations of 160, 80, 16, 8, 1.6 μg/ml. A growth control using phosphate buffered saline A (PBSA) plus a Brain Heart Infusion/Hemoglobin broth was used in place of the drug because it has no antimicrobial effect. DGME was the solvent used to dissolve the proguanil, accordingly, 10% DGME in broth was used as the solvent control. These inoculated broth solutions were then allowed to incubate for a period of 72 hours. Samples were taken at 0, 4, 24, 48 and 72 hours and spiral plated so the CFU/ml could be calculated.

[7] = 80 μg/ml, time zero to 72 hours
[8] = all other concentrations (16, 8, 1.6 μg/ml)

SMILES: CC(C)NC(=N)NC(=N)Nc1ccc(Cl)cc1 [Proguanil, N-(4-Chlorophenyl)-N′-(1-methylethyl)imidodicarbonimidic diamide]
- bacteria eliminated ([1]; 160 μg/ml, by 24 hours): 97-100%
- Relative Sensitivity (Compared to Other Strains Tested) ([1]; Propionibacterium acnes ATCC 6919): Sensitive
- Approximate Inhibitory Level ([1]; Propionibacterium acnes ATCC 6919, level at which partial or total inhibition of growth is observed): 80 to 160 µg/mL
- killing of P. acnes ([1]; between 0.16 and 16 μg/ml): not very effective
- effect on CFU/ml [2, 7]: only a slight increase in CFU/ml
- effect on the bacteria ([2]; 160 μg/ml): strong inhibition and killing effect
- CFU/ml ([2]; 160 μg/ml, T=24, 48 and 72 hours): 0 CFU/ml
- Relative Sensitivity (Compared to Other Strains Tested) ([2]; Streptococcus dysgalactiae (Group G) ATCC 6644): Sensitive
- Approximate Inhibitory Level ([2]; Streptococcus dysgalactiae (Group G) ATCC 6644, level at which partial or total inhibition of growth is observed): 80 to 160 µg/mL
- effect on CFU/ml [2, 8]: very similar and near the CFU/ml of the Mueller Hinton II broth control
- CFU/ml ([3]; 160 μg/ml, static from 24 to 72 hours): 80 CFU/ml
- effect on C. albicans ([3]; 320 μg/ml, 24 hour time point and later): completely killed
- CFU counts ([3]; 1280 μg/ml, all time points 0-72 hours): 0 CFU
- effect on the yeast ([3]; 640 and 480 μg/ml, 4-72 hour time points): killing all of the yeast
- Relative Sensitivity (Compared to Other Strains Tested) ([3]; Candida albicans): Moderately
- Approximate Inhibitory Level ([3]; Candida albicans, level at which partial or total inhibition of growth is observed): 320 µg/mL
- effect on CFU/ml [4, 7]: only a slight increase in CFU/ml
- effect on the bacteria ([4]; 160 μg/ml): strong inhibition and killing
- CFU/ml ([4]; 160 μg/ml, T=48 and 72 hours): 0 CFU/ml
- Relative Sensitivity (Compared to Other Strains Tested) ([4]; Streptococcus equi subspecies equi (Group C) ATCC 33398): Sensitive
- Approximate Inhibitory Level ([4]; Streptococcus equi subspecies equi (Group C) ATCC 33398, level at which partial or total inhibition of growth is observed): 80 to 160 µg/mL
- effect on CFU/ml [4, 8]: very similar and near the CFU/ml of the Mueller Hinton II broth control
- inhibition of the bacteria ([5]; 160 μg/ml, all time points, similar to the DGME solvent control): slight inhibition
- kill of S. aureus ([5]; 320 μg/ml, by the 24 hour time point and later through 72 hours): complete kill
- kill of the bacteria ([5]; 1280, 640, and 480 μg/ml, by the 4 hour time point and later through 72 hours): complete kill
- Relative Sensitivity (Compared to Other Strains Tested) ([5]; Staphylococcus aureus ATCC-6538P): Moderately
- Approximate Inhibitory Level ([5]; Staphylococcus aureus ATCC-6538P, level at which partial or total inhibition of growth is observed): 320 µg/mL
- effect on the bacteria ([6]; 160 μg/ml and 80 μg/ml, 4 hours through 72 hours): killing effect
- inhibition of growth ([6]; 16, 8, and 1.6 μg/ml): no or little inhibition of growth
- CFU/ml ([6]; 160 and 80 μg/ml, T=24, 48 and 72 hours): 0 CFU/ml
- Relative Sensitivity (Compared to Other Strains Tested) ([6]; Gardnerella vaginalis ATCC 14018): Very Sensitive
- Approximate Inhibitory Level ([6]; Gardnerella vaginalis ATCC 14018, level at which partial or total inhibition of growth is observed): 80 µg/mL
